Assay results: ChEMBL document CHEMBL1145730, “Nodulisporic acid side-chain modifications: access to the 2", 3", 4", and 6" registers” (Bioorg Med Chem Lett, 2003)

tested on: Pulicinae; assay: In vitro flea activity using a membrane feeding assay wherein adult fleas ingest drug-treated bovine blood; assay type: functional

Row | SMILES | Activity [p.p.m.]
1 | C=C(C)[C@H]1C(=O)c2c3c(cc4c5c(n1c24)[C@@]1(C)C(CC[C@H]2[C@](C)(C/C=C/C(=O)OC)[C@@H](O)CC[C@@]21C)C5)C1=CC(C)(C)OC(C)(C)C1[C@@H]3O (stereo not given in full) | 10
2 | C=C(C)[C@H]1C(=O)c2c3c(cc4c5c(n1c24)[C@@]1(C)C(CC[C@H]2[C@](C)(/C=C/C(=O)N(C)C)[C@@H](O)CC[C@@]21C)C5)C1=CC(C)(C)OC(C)(C)C1[C@@H]3O (stereo not given in full) | > 10
3 | C=C(C)[C@H]1C(=O)c2c3c(cc4c5c(n1c24)[C@@]1(C)C(CC[C@H]2[C@](C)(/C=C/CC(=O)Nc4ccccc4)[C@@H](O)CC[C@@]21C)C5)C1=CC(C)(C)OC(C)(C)C1[C@@H]3O (stereo not given in full) | 1
4 | C=C(C)[C@H]1C(=O)c2c3c(cc4c5c(n1c24)[C@@]1(C)C(CC[C@H]2[C@](C)(/C=C/CC(C)=O)[C@@H](O)CC[C@@]21C)C5)C1=CC(C)(C)OC(C)(C)C1[C@@H]3O (stereo not given in full) | 1
5 | C=C(C)[C@H]1C(=O)c2c3c(cc4c5c(n1c24)[C@@]1(C)C(CC[C@H]2[C@](C)(/C=C/CC(=O)OC)[C@@H](O)CC[C@@]21C)C5)C1=CC(C)(C)OC(C)(C)C1[C@@H]3O (stereo not given in full) | 1
6 | C=C(C)[C@H]1C(=O)c2c3c(cc4c5c(n1c24)[C@@]1(C)C(CC[C@H]2[C@](C)(/C=C/C(=O)NC(C)(C)c4ccccn4)[C@@H](O)CC[C@@]21C)C5)C1=CC(C)(C)OC(C)(C)C1[C@@H]3O (stereo not given in full) | 1
7 | C=C(C)[C@H]1C(=O)c2c3c(cc4c5c(n1c24)[C@@]1(C)C(CC[C@H]2[C@](C)(C/C=C/C(=O)NC4CC4)[C@@H](O)CC[C@@]21C)C5)C1=CC(C)(C)OC(C)(C)C1[C@@H]3O (stereo not given in full) | > 10
8 | C=C(C)[C@H]1C(=O)c2c3c(cc4c5c(n1c24)[C@@]1(C)C(CC[C@H]2[C@](C)(C/C=C/C(C)=O)[C@@H](O)CC[C@@]21C)C5)C1=CC(C)(C)OC(C)(C)C1[C@@H]3O (stereo not given in full) | 10
9 | C=C(C)[C@H]1C(=O)c2c3c(cc4c5c(n1c24)[C@@]1(C)C(CC[C@H]2[C@](C)(/C=C/CC(=O)N4CCOCC4)[C@@H](O)CC[C@@]21C)C5)C1=CC(C)(C)OC(C)(C)C1[C@@H]3O (stereo not given in full) | 1
10 | C=C(C)[C@H]1C(=O)c2c3c(cc4c5c(n1c24)[C@@]1(C)C(CC[C@H]2[C@](C)(/C=C/CC(=O)NC(C)(C)C)[C@@H](O)CC[C@@]21C)C5)C1=CC(C)(C)OC(C)(C)C1[C@@H]3O (stereo not given in full) | 1
11 | C=C(C)[C@H]1C(=O)c2c3c(cc4c5c(n1c24)[C@@]1(C)C(CC[C@H]2[C@](C)(/C=C/CC(=O)NC4CC4)[C@@H](O)CC[C@@]21C)C5)C1=CC(C)(C)OC(C)(C)C1[C@@H]3O (stereo not given in full) | 1
12 | C=C(C)[C@H]1C(=O)c2c3c(cc4c5c(n1c24)[C@@]1(C)C(CC[C@H]2[C@](C)(/C=C/C(=O)N4CCN(c6ccccn6)CC4)[C@@H](O)CC[C@@]21C)C5)C1=CC(C)(C)OC(C)(C)C1[C@@H]3O (stereo not given in full) | 1
13 | C=CCN(C)C(=O)/C=C/[C@]1(C)[C@@H](O)CC[C@@]2(C)[C@H]1CCC1Cc3c(n4c5c(c6c(cc35)C3=CC(C)(C)OC(C)(C)C3[C@@H]6O)C(=O)[C@@H]4C(=C)C)[C@@]12C (stereo not given in full) | > 10
14 | C=C(C)[C@H]1C(=O)c2c3c(cc4c5c(n1c24)[C@@]1(C)C(CC[C@H]2[C@](C)(C/C=C/C(=O)N(C)C)[C@@H](O)CC[C@@]21C)C5)C1=CC(C)(C)OC(C)(C)C1[C@@H]3O (stereo not given in full) | 10
15 | C=C(C)[C@H]1C(=O)c2c3c(cc4c5c(n1c24)[C@@]1(C)C(CC[C@H]2[C@](C)(/C=C/CC(=O)N(C)CCC)[C@@H](O)CC[C@@]21C)C5)C1=CC(C)(C)OC(C)(C)C1[C@@H]3O (stereo not given in full) | 1
16 | C=C(C)[C@H]1C(=O)c2c3c(cc4c5c(n1c24)[C@@]1(C)C(CC[C@H]2[C@](C)(/C=C/CC(=O)NCC)[C@@H](O)CC[C@@]21C)C5)C1=CC(C)(C)OC(C)(C)C1[C@@H]3O (stereo not given in full) | 10
17 | C=C(C)[C@H]1C(=O)c2c3c(cc4c5c(n1c24)[C@@]1(C)C(CC[C@H]2[C@](C)(/C=C/CC=O)[C@@H](O)CC[C@@]21C)C5)C1=CC(C)(C)OC(C)(C)C1[C@@H]3O (stereo not given in full) | 10
18 | C=C(C)[C@H]1C(=O)c2c3c(cc4c5c(n1c24)[C@@]1(C)C(CC[C@H]2[C@](C)(/C=C/CC(=O)N(C)C)[C@@H](O)CC[C@@]21C)C5)C1=CC(C)(C)OC(C)(C)C1[C@@H]3O (stereo not given in full) | 10
19 | C=C(C)[C@H]1C(=O)c2c3c(cc4c5c(n1c24)[C@@]1(C)C(CC[C@H]2[C@](C)(/C=C/C=C(\C)C(=O)O)[C@@H](O)CC[C@@]21C)C5)C1=CC(C)(C)OC(C)(C)C1[C@@H]3O (stereo not given in full) | 1
20 | C=C(C)[C@H]1C(=O)c2c3c(cc4c5c(n1c24)[C@@]1(C)C(CC[C@H]2[C@](C)(/C=C/C(=O)NCCC)[C@@H](O)CC[C@@]21C)C5)C1=CC(C)(C)OC(C)(C)C1[C@@H]3O (stereo not given in full) | > 10
21 | C=C(C)[C@H]1C(=O)c2c3c(cc4c5c(n1c24)[C@@]1(C)C(CC[C@H]2[C@](C)(/C=C/C(=O)NC)[C@@H](O)CC[C@@]21C)C5)C1=CC(C)(C)OC(C)(C)C1[C@@H]3O (stereo not given in full) | 10
22 | C=C(C)[C@H]1C(=O)c2c3c(cc4c5c(n1c24)[C@@]1(C)C(CC[C@H]2[C@](C)(/C=C/CC(=O)NCc4ccco4)[C@@H](O)CC[C@@]21C)C5)C1=CC(C)(C)OC(C)(C)C1[C@@H]3O (stereo not given in full) | 10
23 | C=C(C)[C@H]1C(=O)c2c3c(cc4c5c(n1c24)[C@@]1(C)C(CC[C@H]2[C@](C)(/C=C/CC(=O)NCc4ccccc4)[C@@H](O)CC[C@@]21C)C5)C1=CC(C)(C)OC(C)(C)C1[C@@H]3O (stereo not given in full) | 10
24 | C=C(C)[C@H]1C(=O)c2c3c(cc4c5c(n1c24)[C@@]1(C)C(CC[C@H]2[C@](C)(/C=C/C(=O)NCc4ccccc4)[C@@H](O)CC[C@@]21C)C5)C1=CC(C)(C)OC(C)(C)C1[C@@H]3O (stereo not given in full) | 10
25 | C=C(C)[C@H]1C(=O)c2c3c(cc4c5c(n1c24)[C@@]1(C)C(CC[C@H]2[C@](C)(C/C=C/C(=O)NCC)[C@@H](O)CC[C@@]21C)C5)C1=CC(C)(C)OC(C)(C)C1[C@@H]3O (stereo not given in full) | 10
